One assay deals with IKKε (Homo sapiens (Human), UniProt Q14164). Briefly: TR-FRET kinase assay, IKKε. The conditions noted are these: full length recombinant IKKε 0.3 nM, 2x Km ATP, 1 μM peptide, 240 min at 25° C.; geometric mean of minimum four determinations. The format is biochemical. From the text: Biological Assay for TBK1 and IKKs:
(TR-FRET usually uses a lanthanide donor and a delayed reading to cut background.)

A further assay addresses TBK1 (Homo sapiens (Human), UniProt Q9UHD2). Briefly: TR-FRET kinase assay, TBK1. As to conditions: read-out: TBK1-IC50; full length recombinant TBK1 2.5 nM, 2x Km ATP, 1 μM peptide, 240 min at 25° C.; geometric mean of minimum four determinations.

We go through 11 compounds from patent US10072001B2, “Tank-binding kinase inhibitor compounds” (Gilead Sciences, Inc., priority 2014, dated 2018).

Where only a bound is given, the exact number is not on record here.

Sequence of IKKε (Q14164 whole entry): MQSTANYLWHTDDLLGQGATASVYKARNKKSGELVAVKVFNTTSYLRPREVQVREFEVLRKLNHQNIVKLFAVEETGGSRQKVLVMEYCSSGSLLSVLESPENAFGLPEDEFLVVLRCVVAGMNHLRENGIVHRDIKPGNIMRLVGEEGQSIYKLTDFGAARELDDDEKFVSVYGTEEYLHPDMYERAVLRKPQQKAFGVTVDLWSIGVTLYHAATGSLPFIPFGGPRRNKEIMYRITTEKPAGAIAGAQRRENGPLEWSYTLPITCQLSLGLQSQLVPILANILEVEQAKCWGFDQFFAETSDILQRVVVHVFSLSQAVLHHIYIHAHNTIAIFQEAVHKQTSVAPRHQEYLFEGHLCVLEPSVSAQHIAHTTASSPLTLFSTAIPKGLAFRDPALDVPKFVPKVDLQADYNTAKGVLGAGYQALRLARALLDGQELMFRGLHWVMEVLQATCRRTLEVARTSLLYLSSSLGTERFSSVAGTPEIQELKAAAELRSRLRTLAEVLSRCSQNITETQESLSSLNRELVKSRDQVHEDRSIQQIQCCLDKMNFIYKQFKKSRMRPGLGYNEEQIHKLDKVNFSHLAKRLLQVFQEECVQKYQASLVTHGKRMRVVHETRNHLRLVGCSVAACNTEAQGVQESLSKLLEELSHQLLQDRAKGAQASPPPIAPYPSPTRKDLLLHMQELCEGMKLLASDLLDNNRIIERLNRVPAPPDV
Sequence of TBK1 (Q9UHD2 whole entry): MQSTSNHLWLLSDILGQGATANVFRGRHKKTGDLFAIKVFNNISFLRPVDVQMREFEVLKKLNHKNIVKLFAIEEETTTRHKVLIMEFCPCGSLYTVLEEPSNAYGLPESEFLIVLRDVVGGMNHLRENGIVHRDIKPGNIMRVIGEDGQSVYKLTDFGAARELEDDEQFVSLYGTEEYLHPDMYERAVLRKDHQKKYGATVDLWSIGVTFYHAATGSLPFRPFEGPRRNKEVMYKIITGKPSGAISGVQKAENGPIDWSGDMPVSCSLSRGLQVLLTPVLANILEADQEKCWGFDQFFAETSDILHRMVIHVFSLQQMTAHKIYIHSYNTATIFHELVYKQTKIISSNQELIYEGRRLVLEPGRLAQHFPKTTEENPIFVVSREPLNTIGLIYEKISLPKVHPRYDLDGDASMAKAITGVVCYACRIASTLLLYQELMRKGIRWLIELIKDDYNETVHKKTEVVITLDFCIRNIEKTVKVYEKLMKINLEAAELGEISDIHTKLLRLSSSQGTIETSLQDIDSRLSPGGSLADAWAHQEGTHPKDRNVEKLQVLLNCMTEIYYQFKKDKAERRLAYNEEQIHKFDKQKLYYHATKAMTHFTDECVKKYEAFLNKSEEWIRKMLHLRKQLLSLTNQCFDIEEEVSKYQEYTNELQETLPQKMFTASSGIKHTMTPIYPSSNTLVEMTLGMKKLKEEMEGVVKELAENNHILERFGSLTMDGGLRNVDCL

Turning to `CC(C)(C)OC(=O)N1CC[C@@H](Oc2ccc(-c3ccnc4[nH]c(-c5ccc(N6CCOCC6)cc5)nc34)cc2C#N)C1` [Example 302, (R)-tert-butyl 3-(2-cyano-4-(2-(4-morpholinophenyl)-3H-imidazo[4,5-b]pyridin-7-yl)phenoxy)pyrrolidine-1-carboxylate], the IC50 at IKKε and on TBK1 was above 1000 nM each time.

As to `N#Cc1cc(-c2ncnc3[nH]c(-c4ccc(OCCN5CCCC5)cc4)cc23)ccc1OCC1CC1` [Example 138, 2-(cyclopropylmethoxy)-5-(6-(4-(2-(pyrrolidin-1-yl)ethoxy)phenyl)-7H-pyrrolo[2,3-d]pyrimidin-4-yl)benzonitrile], the IC50 came to 3.9 nM on IKKε and 5.88 nM on TBK1.

Turning to `N#Cc1cc(-c2ccnc3[nH]c(-c4cccc(CN5CCOCC5)c4)cc23)ccc1OC1CCOCC1` [Example 39, 5-(2-(3-(morpholinomethyl)phenyl)-1H-pyrrolo[2,3-b]pyridin-4-yl)-2-((tetrahydro-2H-pyran-4-yl)oxy)benzonitrile], the figures for the concentration for half-maximal inhibition (IC50) on IKKε and at TBK1 were 10.7 nM and 10.1 nM, respectively.

Turning to `N#Cc1cc(-c2ncnc3[nH]c(-c4ccc(N5CCNCC5)cc4)cc23)ccc1OC1CCOCC1` [Example 200, 5-(6-(4-(piperazin-1-yl)phenyl)-7H-pyrrolo[2,3-d]pyrimidin-4-yl)-2-((tetrahydro-2H-pyran-4-yl)oxy)benzonitrile], the IC50 at IKKε was 1.03 nM; on TBK1, 0.644 nM.

As for `N#Cc1cc(-c2ccnc3[nH]c(C4=CCC5(CC4)OCCO5)cc23)ccc1OC1CCOCC1` [Example 180, 5-(2-(1,4-dioxaspiro[4.5]dec-7-en-8-yl)-1H-pyrrolo[2,3-b]pyridin-4-yl)-2-((tetrahydro-2H-pyran-4-yl)oxy)benzonitrile], the IC50 worked out at 20.7 nM on IKKε and 3.1 nM on TBK1.

Consider `C[C@H](O)C(=O)N1CC[C@@H](Oc2ccc(-c3ncnc4[nH]c(-c5ccc(N6CCOCC6)cc5)nc34)cc2C#N)C1` [Example 210, 2-(((R)-1-((S)-2-hydroxypropanoyl)pyrrolidin-3-yl)oxy)-5-(8-(4-morpholinophenyl)-9H-purin-6-yl)benzonitrile], for which the IC50 at IKKε was above 875 nM; on TBK1, 38.9 nM.

For the compound `CN1CCN(c2ccc(-c3nc4c(-c5ccc(OC6CCOCC6)c(C#N)c5)ccnc4[nH]3)cc2)CC1` [Example 306, 5-(2-(4-(4-methylpiperazin-1-yl)phenyl)-3H-imidazo[4,5-b]pyridin-7-yl)-2-((tetrahydro-2H-pyran-4-yl)oxy)benzonitrile], the IC50 at IKKε is 1.21 nM; at TBK1, 1.85 nM.

As for `N#CCC(=O)N1CC[C@@H](Oc2ccc(-c3ncnc4[nH]c(-c5ccc(N6CCOCC6)cc5)cc34)cc2C#N)C1` [Example 107, (R)-2-((1-(2-cyanoacetyl)pyrrolidin-3-yl)oxy)-5-(6-(4-morpholinophenyl)-7H-pyrrolo[2,3-d]pyrimidin-4-yl)benzonitrile], the IC50 at IKKε amounted to 11.7 nM; at TBK1, 2.26 nM.

Consider `O=C1NCc2cc(-c3cc4c(-c5ccc6c(c5)CNC6=O)ncnc4[nH]3)ccc21` [Example 224, 5,5′-(7H-pyrrolo[2,3-d]pyrimidine-4,6-diyl)bis(isoindolin-1-one)], for which the IC50 at IKKε and on TBK1 was 1000 nM throughout.

Consider `N#Cc1cc(-c2ccnc3[nH]c(-c4cnn(C5CCOCC5)c4)cc23)ccc1OC1CCOCC1` [Example 51, 5-(2-(1-(tetrahydro-2H-pyran-4-yl)-1H-pyrazol-4-yl)-1H-pyrrolo[2,3-b]pyridin-4-yl)-2-((tetrahydro-2H-pyran-4-yl)oxy)benzonitrile], for which the IC50 at IKKε worked out at 2.98 nM; on TBK1, 3.54 nM.

`N#Cc1cc(-c2ccnc3[nH]c(-c4ccc(N5CCOCC5)cc4)cc23)ccc1O[C@H]1CCN(C(=O)CO)C1` [Example 23, (S)-2-((1-(2-hydroxyacetyl)pyrrolidin-3-yl)oxy)-5-(2-(4-morpholinophenyl)-1H-pyrrolo[2,3-b]pyridin-4-yl)benzonitrile]: the IC50 on IKKε came to 64.9 nM; on TBK1, 16.2 nM.

One may read the IC50 as the concentration at which inhibition is half-maximal.
